The test system of assay [1] is HeLa, PANC1 and PC3M cells; PANC1 xenograft tumor tissues. Kind of assay: Nucleolar structure by electron microscopy and immunofluorescence in cancer cells and tumor tissues. The class given is cell-based, human. As to the method:
Representative electron micrographs are shown for HeLa cells (FIG. 21A; treated at 1 μM for 24 hours), primary pancreatic tumors (FIG. 21B), and liver metastases (FIG. 21C) from NSG PANC1 mice treated with vehicle (top) or 10 mg/kg metarrestin (bottom) for 7 days. […] Scale bar=1 μm.
100 nucleoli were randomly selected and analyzed to calculate nucleolar area as ((largest+shortest diameter)/2)^2×π). The comparison of mean nucleolar areas was performed using Mann Whitney U test, 2-tailed, n=4 animals per group.
To address the mechanisms by which metarrestin inhibits metastasis, cellular changes after metarrestin treatment were observed. Primary antibodies: 1:300 dilution for SH54 (anti-PTB antibody); 1:300 for Nopp140 (anti-human Nopp140 rabbit polyclonal serum RS8); 1:50 for UBF (F-9) (Santa Cruz Biotechnology); 1:100 for RPA194 (Santa Cruz Biotechnology); 1:100 for CUG-BP1 (3B1) (Santa Cruz Biotechnology); 1:10 for fibrillarin (Sigma Cat #: ANA-N); 1:1000 for SC35; 1:300 for paxillin (ab32084); 1:600 for vinculin (Sigma V9131). The fluorescein-conjugated secondary antibodies (Jackson ImmunoResearch) and ALEXA FLUOR antibodies (Thermofisher Scientific) were used at a dilution of 1:200. Samples were visualized on a Nikon ECLIPSE Ti-E inverted fluorescence microscope using NIS-Elements AR 3.2 software (Nikon).
The nucleolar disruption was reversible within 48 hours upon withdrawal of metarrestin (FIG. 47). Similar disruptions were observed among other treated cell lines, including PANC1 and PC3M cells (FIG. 48), primary tumor, and liver metastatic tissues in the PANC1 xenograft model (FIG. 21, right panels). […] The segregation of the nucleolar compartments observed by EM is believed to correspond to the nucleolar capping structures detected by immunofluorescence of nucleolar proteins (FIGS. 21A-21C, 23, and 50). […]

Assay [2] concerns normal human fibroblast GM02153 cell line. Kind of assay: UBF distribution (nucleolar capping) in normal fibroblasts. The class given is cell-based. As to the method: The nucleolar disruption was reversible within 48 hours upon withdrawal of metarrestin (FIG. 47). Similar disruptions were observed among other treated cell lines, including PANC1 and PC3M cells (FIG. 48), primary tumor, and liver metastatic tissues in the PANC1 xenograft model (FIG. 21, right panels). […] The segregation of the nucleolar compartments observed by EM is believed to correspond to the nucleolar capping structures detected by immunofluorescence of nucleolar proteins (FIGS. 21A-21C, 23, and 50). The coupling of nucleolar segregation with PNC loss was confirmed across several cell lines by immunolabeling with antibodies against the nucleolar Pol I transcription initiation factors, UBF (upstream binding transcription factor) (FIGS. 23 and 50), or Pol I polymerase, RPA194 (FIG. 51). Factors involved in ribosome maturation, such as fibrillarin or NOPP140 (FIGS. 51 and 52) were similarly reorganized. In contrast, UBF distribution was not changed when the normal human fibroblast GM02153 cell line was treated with metarrestin at the same concentration (FIG. 53).

Assay [3] has as its system RPA194 and UBF. Briefly: Western blot of RPA194 and UBF. The class given is cell-based. Conditions: 1 μM, 24 hours, PANC1, PC3M, and HeLa. The procedure:
Western blots were performed according to the manufacturer's protocols (Li-COR). Transfer membrane was from Millipore (cat. no. IPFL00010). The primary antibodies used were phospho-γ H2AX (Upstate 07-164, rabbit, 1:1000); p53 (Santa Cruz Biotechnology sc-6243 rabbit 1:500); UBF (F-9) (Santa Cruz Biotechnology, mouse, 1:500); RPA194 (Santa Cruz Biotechnology, sc-48385, mouse, 1:500); p53BP1 (Novus, NB100-304, rabbit 1:10,000); EF1a (Millipore 05-235, mouse, 1:1000), HA-Tag (C29F4, Cell Signaling, rabbit 1:1000) and actin (Sigma A5060, rabbit, 1:3000, A4700, mouse, 1:1000) as a loading control. LI-COR IRDye secondary antibodies (1:10,000), goat anti-mouse-680RD (926-68070), goat anti-mouse-800CW (926-32210), goat-anti-rabbit-680RD (926-68071), goat-anti-rabbit-800CW (926-32211) were used for visualization. Protein bands were detected using LI-COR Odyssey Image Studio (LI-COR Biosciences).
Psoralen crosslinks active accessible DNA under UV light without displacing nucleosomes or transcription factors, or changing chromatin states. Psoralen-crosslinked DNA moves slower on agarose gel and can be distinguished from the non-crosslinked DNA by Southern blots. […] To examine the interactions between Pol I transcription factors and rDNA, quantitative ChIP experiments were carried out using primer sets across promoter and coding regions of rDNA (FIG. 29-30E).

Assay [4] has as its system PC3M cells overexpressing eEF1A2. Kind of assay: PNC disassembly in eEF1A2-overexpressing cells. The class given is cell-based. The settings on record: vs control vector. The text has this: FIG. 39 is a graph showing that overexpression of eEF1A2 in PC3M cells increased the IC50 of metarrestin for PNC disassembly. PNC prevalence (%) is on the y-axis and the log [M] metarrestin is on the […]. eEF1A2 is shown by circles and the control vector is shown by squares.
eEF1As are multi-functional proteins, implicated in translation elongation, actin bundling, nuclear transport, and tRNA export. To evaluate whether eEF1A mediates the effect of metarrestin on cancer cells, eEF1A was either overexpressed or reduced through siRNA silencing. […] Thus, eEF1A2 enhances PNC structures, but is alone not sufficient to induce significant formation of PNCs in PNC-negative cells. To evaluate the functional link between the phenotype of metarrestin-induced PNC disassembly and eEF1A2, PNC disassembly in wild type and eEF1A2-overexpressing cancer cells was analyzed. Cells with and without over expression of eEF1A2-HA (48 hours after transfection with an efficiency at around 70%, FIGS. 61 and 64) were treated with metarrestin at 10 concentrations, and PNC prevalence was evaluated at 63× magnification. […] To evaluate whether eEF1A2 indeed regulates the metastatic phenotype, PANC1 cells with (PANC1 eEF1A2 O.E.) or without (PANC1 control) overexpression of eEF1A2 were orthotopically injected into NSG mice. Six weeks after implantation, organs were subjected to histopathological evaluation.

Regarding `N=c1c2c(-c3ccccc3)c(-c3ccccc3)n(Cc3ccccc3)c2ncn1[C@H]1CC[C@H](O)CC1` [metarrestin], the Nucleolar structure result in assay [1] (1 μM, electron microscopy) is recorded as “induced collapse of the nucleolus”. In addition, the “Time to reversal of nucleolar disruption upon withdrawal” value in assay [1] (after 1 μM for 24 hours, HeLa cells) was not above 48 h. In addition, the Nucleolar volume result in assay [1] (treated cell lines and cancer tissues, p<0.0001) is reported as “significantly reduced”. Besides, the UBF distribution entry in assay [2] (1 μM) is recorded as “not changed”. The UBF capping result in assay [2] (5 μM) was “did not become completely capped”. Further, the “Amounts of Pol I large subunit RPA194 and UBF” value in assay [3] is “did not change significantly”. Besides, in assay [4], the “IC50 for PNC disassembly with increased expression of eEF1A2” value is reported as “increased the inhibitory concentration 50 (IC50)”.

The values above are taken from US20210186972A1, “FORMULATIONS AND METHODS FOR THE PREVENTION AND TREATMENT OF TUMOR METASTASIS AND TUMORIGENESIS” (THE UNITED STATES OF AMERICA, AS REPRESENTED BY THE …, priority 2018, published 2021).
